Laboratory results taken from patent US20250312300A1, “BRIDGED BICYCLIC CARBOXYLIC ACIDS FOR TREATING OSTEOSARCOMA AND EWING SARCOMA” (UEA ENTERPRISES LIMITED, priority 2022, published 2025).
Entries after “also recorded” stand apart in the source; their conditions may differ.

Columns and labels:
[1] = tested on: osteosarcoma and Ewing sarcoma; settings: PMID: 20068084; cited from earlier work
[2] = tested on: 143B (human OS) cells; experiment: Proliferation assay (WST-1), OS cells; format: cell-based; settings: 100 μM CADD522, 72 h, WST-1, relative to control
Experimental: (§1) Cell lines. 143B (human OS) and TC71 (human ES) cells were obtained from ATCC. Cells were authenticated by STR profiling and were cultured in DMEM/F-12 (Thermo Fisher Scientific) or IMDM (Thermo Fisher Scientific) containing 1% (v/v) insulin transferrin selenium, 10% (v/v) FBS and 1% (v/v) penicillin/streptomycin. Medium was refreshed every other day and cells were maintained at 37° C. in 5% CO2. For the animal experiments 143B and TC71 cells were modified by transfecting with the GFP-luciferase tagged LVP02 lentivirus (AMSBIO). Adding the luciferase tag had no effect on cell phenotype.
(§2) Proliferation assays. 1×10^3 cells in 100 μL of medium were seeded per well into 96-well plates. PBS was added to outer wells to prevent evaporation. All plates were incubated for 24 h at 37° C. in 5% CO2. 100 nM, 1 μM, 10 μM and 100 μM CADD522 were added from a stock concentration of 10 mM in DMSO and incubated for 72 h before measuring cell viability/proliferation using the WST-1 assay kit (Abcam) following manufacturer's instructions. Data was presented as relative to the control (appearing as −11 on x-axis), which is set to 100% viability. Experiments were performed in quadruplicates in three independent experiments.
(§3) Statistics. […] Data was tested for normality by D'Agostino Pearson Omnibus test and analysed in GraphPad Prism v9 with p=<0.05 regarded as significant. […]

[3] = tested on: TC71 (human ES) cells; experiment: Proliferation assay (WST-1), ES cells; format: cell-based; settings: 100 μM CADD522, 72 h, WST-1, relative to control
Experimental: as §1, §2, §3

[4] = tested on: 143B+GFP-Luc (OS) cells; experiment: PBC xenograft mouse model, OS; format: in vivo, BALB/c nude mice
Experimental: (§4) Mice. The University of Sheffield Animal Welfare and Ethics Committee approved the animal experiments. Experiments were performed under licence in accordance with the UK Home Office guidelines and under the Animals (Scientific Procedures) Act 1986. Six- to seven-week-old female BALB/c nude mice (Charles River Laboratories) were acclimatised for one week prior to in vivo study. Mice were housed with a 12 h light-dark cycle at 22° C. and had free access to 2018 Teklad global 18% protein rodent diet containing 1.01% calcium (Harlan) and water. Mice were anesthetised by isoflurane inhalation before implantation with 2.5×10^5 143B+GFP-Luc (OS) cells or 5×10^5 TC71+GFP-Luc (ES) cells in 20 μl PBS onto the tibial surface. Mice were matched by weight and initial IVIS signal and then randomly divided into groups (n=8 mice/group). CADD522 treatment commenced the day after tumours became visible. Mice received either vehicle control (PBS and DMSO) or CADD522 (25 mg/kg) by IP injection five times per week. Tumours were measured by callipers throughout the study twice per week blinded. Two perpendicular measurements were taken and volume calculated by the formula V=0.523×L×(S)^2 where L and S refer to the largest and smallest measurement. Mice were treated until the palpable tumour reached the permissible 12 mm diameter limit. At the end of the procedure ex vivo imaging of mouse internal organs was performed to detect metastasis. Prior to killing, mice were injected subcutaneously with 150 mg/kg XenoLight D-Luciferin substrate (Perkin Elmer) that was left to disperse for a minimum of 5 m. Dissected organs were then imaged using the IVIS Lumina II. Mice legs and lungs were dissected and fixed in 10% formalin for further analysis.
Micro-CT. Fixed tibiae were scanned using a SkyScan 1172 desktop micro-CT machine (Bruker) at 8 um resolution with the X-ray source operating at 50 kV, 200 uA and using a 0.5 mm aluminium filter. Images were captured every 0.7°. Scanned images were reconstructed using Skyscan NRecon software v1.6.9 (Bruker). The region of interest (ROI) for the total bone volume was selected to include both the tibia and fibula and was determined at the top of the bone as soon as the tibia enters the image to the lower point where the tibia and fibula meet.
Histology. Bones were fixed in neutral buffered formalin for 48 h after which they were transferred to 70% ethanol. Bones were then decalcified in 10% EDTA, embedded in paraffin and 5 μm sections produced. Sections were de-waxed in xylene, rehydrated through graded alcohols and stained in haematoxylin (VWR) and eosin. The sections were dehydrated through graded alcohols and coverslips were mounted in DPX and imaged using Olympus BX51 microscope (Olympus Life Sciences) and Pannoramic 250 Flash III slide scanner (3[…]).
Statistics. For statistical tests p=<0.05 was considered as statistically significant. Proliferation data is reported for each experimental repeat (n=3). Data was tested for normality by D'Agostino Pearson Omnibus test and analysed in GraphPad Prism v9 with p=<0.05 regarded as significant. A one-way ANOVA was used to identify any differences in proliferation across the concentration range tested compared to the untreated control. A post-hoc Dunnett's multiple comparison was then used to determine which concentration impacted proliferation compared to the untreated control. […]

[5] = tested on: TC71+GFP-Luc (ES) cells; experiment: PBC xenograft mouse model, ES; format: in vivo, BALB/c nude mice
Experimental: as §4, with “Mice legs and lungs were dissected and fixed in 10% formalin for further analysis.” left out
Micro-CT. […] The region of interest (ROI) for the total bone volume was selected to include both the tibia and fibula and was determined at the top of the bone as soon as the tibia enters the image to the lower point where the tibia and fibula meet. […]
as §3

[6] = Observed toxicity in treated PBC model mice; format: in vivo; settings: 25 mg/kg over the study period
Experimental: as §4, with “At the end of the procedure ex vivo imaging of mouse internal organs was performed to detect metastasis. Prior to killing, mice were injected subcutaneously with 150 mg/kg XenoLight D-Luciferin substrate (Perkin Elmer) that was left to disperse for a minimum of 5 m. Dissected organs were then imaged using the IVIS Lumina II. Mice legs and lungs were dissected and fixed in 10% formalin for further analysis.” left out

[7] = tested on: osteosarcoma; settings: at 18 weeks of treatment, PMID: 33580363; cited from earlier work
[8] = 25 mg/kg IP, compared to controls

In the case of `C/C(=C\c1csc(C)n1)[C@@H]1C[C@@H]2O[C@]2(C)CCC[C@H](C)[C@H](O)[C@@H](C)C(=O)C(C)(C)[C@@H](O)CC(=O)N1` [ixabepilone], the clinical response [1] is listed as “no partial or complete responses were observed”.
For `O=C(O)C1C2C=CC(C2)C1C(=O)Nc1ccc(Cl)c(Cl)c1` (stereo not shown) [CADD522, 3-(N-(3,4-dichlorophenyl)carbamoyl)-5-norbornene-2-carboxylic acid], the OS cell viability/proliferation [2] was “cytotoxic effect; also recorded: significantly reduced cell proliferation”, the ES cell viability/proliferation [3] was “cytotoxic; also recorded: showed cell proliferation differences” and the “metastasis-free survival, OS mice” value ([4]; 25 mg/kg IP five times per week vs control, p=0.0091) was “significantly increased metastasis-free survival”. For the same molecule, the “overall survival, OS mice” value ([4]; 25 mg/kg IP five times per week vs control, p=0.093) was “Half of OS mice receiving CADD522 treatment survived longer than the control group”, the “OS tumour volume over time” value ([4]; 25 mg/kg IP five times per week vs vehicle control, p=0.0072) was “significantly reduced tumour volume” and the “histology (H&E) of OS tumours at endpoint” value [4, 8] was “more densely packed, generally more vascularised and more organised (arranged in chords)”. For the same molecule, the “bone volume difference, tumour bearing leg vs contralateral (CL) leg (micro-CT)” value ([4]; OS mice, 25 mg/kg IP, in control mice difference significant (p=0.02)) was “no longer statistically significant”, the “overall survival, ES mice” value ([5]; 25 mg/kg IP five times per week vs control, p=0.043) was “Significantly increased overall survival” and the “ES tumour volume over time” value ([5]; 25 mg/kg IP five times per week vs vehicle control, p=0.0003) was “significantly reduced tumour volume”. The “histology (H&E) of ES tumours at endpoint” value [5, 8] was “generally more vascularised” and the “observed toxicity in the animals” value [6] was “no observed toxicity”.
For pembrolizumab, the clinical benefit [7] is given as “no patients had clinical benefit”.
